Experimental findings from patent US8551963B2, “Imidazolothiazole compounds and methods of use thereof” (Ambit Biosciences Corporation, priority 2008, dated 2013) are described below.

For one series, the target named is CYP2C9 (Homo sapiens (Human), UniProt P11712). Description: Cyp enzyme inhibition assay in human liver microsomes, CYP2C9. The format is in vitro ADME. The note with it: CYP2C9, substrate Diclofenac. The procedure:
(§1) The ability of the compound I-1 to inhibit human metabolizing enzymes CYP3A4, CYP2C9, […], CYP2C19 and CYP1A2, was assessed using those enzymes found collectively in human liver microsomes. The test compound I-1 was prepared as a solution in DMSO or acetonitrile and plated in duplicate rows of a 96-well plate (Nunc) for a final assay concentration of 40 μM in 0.2% DMSO (or 2% acetonitrile) in the first column and serially diluted two-fold going down the row. A known selective inhibitor of a given CYP enzyme listed in Table 8 was selected as the appropriate positive control. For each CYP enzyme inhibition assay, an appropriate enzyme-substrate mixture was prepared to afford a final assay concentration of 75 mM KPO4/pH 7.4, 6.5 mM MgCl2, 0.25 mg/mL pooled male and female human liver microsome (CellzDirect lot HMMC-PL020) with the amounts of the appropriate substrate for each CYP enzyme assay given in Table 8. The enzyme-substrate mixture was added to columns 1 through 10 and column 11 served as a negative control with enzyme solution lacking substrate. A solution of NADPH (Calbiochem) was then added to all rows except for one where NADPH would be added after the incubation period, in order to detect NADPH-independent non-CYP-mediated metabolism. The plate was briefly vortexed and left to shake in a 37° C. water bath for 20 minutes. […]
(In general: Liver microsomes are vesicles of endoplasmic reticulum, rich in cytochrome P450 enzymes.)

A further series deals with CYP2D4 (Homo sapiens, UniProt P10635). Nature of the series: Cyp enzyme inhibition assay in human liver microsomes, CYP2D4. The class given is in vitro ADME. The note with it: both sexes, pooled human liver microsomes, pH 7.4, probe dextromethorphan, CYP2D4, substrate dextromethorphan. The protocol:
as §1

The subject of another series is MV4;11 cells. Nature of the series: MV4;11 cellular proliferation assay (Cell Titer Blue). The class given is cell-based. The note with it: Homo sapiens, MV4-11, 72 h, read-out: EC50 (50% inhibition of cellular proliferation). In general terms: The colour change of resazurin is a common sign of viable cells or microbes.
The next series deals with FLT3 (Homo sapiens (Human), UniProt P36888). Description: biochemical. The format is binding.
The next series deals with FLT3 (D835Y) (Homo sapiens (Human), UniProt P36888, D835Y). Description: biochemical. The class given is binding.
The next series deals with FLT3 (K663Q) (Homo sapiens (Human), UniProt P36888, K663Q). Nature of the series: biochemical. The format is binding.
The target of the next series is CYP3A4 (Homo sapiens (Human), UniProt P08684). Nature of the series: Inhibitory constant KI in human liver microsomes, CYP3A4. The class given is in vitro ADME. The note with it: CYP3A4, global non-linear regression. The procedure:
A 2 mM stock of Compound I-1 was prepared in acetonitrile (ACN) and serially diluted 2-fold from 2000 μM to 15.63 μM in ACN. […] Individual human liver microsome preparations containing the substrate were then incubated with Compound I-1 (final concentration range 40 μM to 0.31 μM of Compound I-1) for a final incubation concentration of 0.5 mg/mL microsome, 75 mM KPO4, 6.5 mM MgCl2, 1 mM NADPH and 2% acetonitrile (ACN). The samples were incubated in a 37° C. shaking water bath for 20 minutes then quenched with ACN:water (75:25) containing internal standards propranolol at 0.3 ng/mL and cortisone at 0.3 ng/mL. After brief mixing, the plate was centrifuged and the supernate removed for analysis by LC/MS/MS (API 4000 Qtrap) for formation of 6-hydroxy-testosterone (CYP3A4), 4-hydroxy-mephenyloin (CYP2C19) or hydroxy-taxol (CYP2C8). The data was analyzed using global non-linear regression software (GraphPad Prism) and the overall fit of the data (R^2) was used to determine if Compound I-1 was a competitive, non-competitive, or uncompetitive inhibitor. In addition the data was plotted as a Lineweaver-Burke graph (1/V versus 1/S, where V is the […] and S is the substrate concentration) for each inhibitor concentration. Based on the location of convergence (competitive and non-competitive) or non convergence (uncompetitive) of the plots at each inhibitor concentration, the type of inhibition was determined.
Global non-linear regression allows analysis of all the individual inhibitor curves simultaneously and determines the best fit value for shared parameters between the data sets, in this case KI (or KI′). The results of the global nonlinear analysis of Compound I-1 inhibition of the CYP450 isoforms 3A4, 2C19 and 2C8 are shown in Table 12.

Read-outs that look alike come from different tables or passages of the source.

Chain of CYP3A4 (P08684 whole entry): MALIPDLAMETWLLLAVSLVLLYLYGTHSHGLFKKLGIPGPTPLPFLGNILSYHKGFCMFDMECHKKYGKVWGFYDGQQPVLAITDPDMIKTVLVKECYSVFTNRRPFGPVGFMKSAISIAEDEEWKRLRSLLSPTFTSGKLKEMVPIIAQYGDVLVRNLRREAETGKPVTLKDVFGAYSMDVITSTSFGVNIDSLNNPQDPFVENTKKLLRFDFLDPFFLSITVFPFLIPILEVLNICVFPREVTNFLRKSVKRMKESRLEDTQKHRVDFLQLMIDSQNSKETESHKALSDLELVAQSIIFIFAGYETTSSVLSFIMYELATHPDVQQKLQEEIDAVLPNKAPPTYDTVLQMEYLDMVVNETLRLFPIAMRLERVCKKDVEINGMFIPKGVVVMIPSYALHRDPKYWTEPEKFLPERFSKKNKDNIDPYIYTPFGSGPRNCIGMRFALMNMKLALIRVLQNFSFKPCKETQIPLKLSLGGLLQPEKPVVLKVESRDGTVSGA
Chain of CYP2D4 (P10635 whole entry, looked up): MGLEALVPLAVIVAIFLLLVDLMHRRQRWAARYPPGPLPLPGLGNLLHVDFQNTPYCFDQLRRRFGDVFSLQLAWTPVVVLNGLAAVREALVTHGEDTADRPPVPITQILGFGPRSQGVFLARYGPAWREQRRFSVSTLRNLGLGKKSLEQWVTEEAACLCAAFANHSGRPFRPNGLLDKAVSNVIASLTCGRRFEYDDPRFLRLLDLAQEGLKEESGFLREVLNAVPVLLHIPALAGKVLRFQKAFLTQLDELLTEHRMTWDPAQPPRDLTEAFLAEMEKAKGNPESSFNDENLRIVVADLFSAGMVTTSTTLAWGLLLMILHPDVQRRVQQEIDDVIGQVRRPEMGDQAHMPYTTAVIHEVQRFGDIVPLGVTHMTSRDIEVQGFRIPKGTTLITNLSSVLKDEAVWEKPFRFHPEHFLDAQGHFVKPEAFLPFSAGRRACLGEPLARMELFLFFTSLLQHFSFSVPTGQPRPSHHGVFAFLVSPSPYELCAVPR
Chain of CYP2C9 (P11712 whole entry): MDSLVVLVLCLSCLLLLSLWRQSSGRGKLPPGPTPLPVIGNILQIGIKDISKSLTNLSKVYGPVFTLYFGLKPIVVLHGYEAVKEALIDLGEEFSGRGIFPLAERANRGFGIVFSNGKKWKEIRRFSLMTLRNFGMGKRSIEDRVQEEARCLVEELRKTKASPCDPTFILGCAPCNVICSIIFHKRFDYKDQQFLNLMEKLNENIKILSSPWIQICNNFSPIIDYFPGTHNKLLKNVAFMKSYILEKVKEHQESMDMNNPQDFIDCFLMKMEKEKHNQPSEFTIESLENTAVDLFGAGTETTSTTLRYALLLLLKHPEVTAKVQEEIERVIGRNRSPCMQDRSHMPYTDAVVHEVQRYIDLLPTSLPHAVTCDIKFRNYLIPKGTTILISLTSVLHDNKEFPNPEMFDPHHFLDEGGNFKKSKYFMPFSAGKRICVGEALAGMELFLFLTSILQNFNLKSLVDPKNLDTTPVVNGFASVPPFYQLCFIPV
Description for FLT3 (D835Y): (§2) Competition binding assays used herein were developed, validated and performed as described in Fabian et al., Nature Biotechnology 2005, 23, 329-336. Kinases were produced as fusions to T7 phage (See, Fabian et al. or WO04/015142) or alternatively, the kinases were expressed in HEK-293 cells and subsequently tagged with DNA for PCR detection (See, WO08/005,310). […] The liganded beads were blocked with excess biotin and washed with blocking buffer (SeaBlock (Pierce), 1% BSA, 0.05% Tween 20, 1 mM DTT) to remove unbound ligand and to reduce non-specific binding. […] Test compounds were prepared as 100× stocks in DMSO and rapidly diluted into the aqueous environment. DMSO was added to control assays lacking a test compound. […] The kinase concentration in the eluates was measured by quantitative PCR. Each kinase was tested individually against each compound. Kds were determined using eleven serial threefold dilutions.
Description for FLT3 (K663Q): as §2
Description for MV4;11 cells: Cells were cultured overnight in low serum media with 0.5% FBS. The following day, cells were seeded on to a 96-well plate at 40,000 cells per well at a volume of 100 μL per well.
CTB reagent was thawed in a 37° C. water bath. 40 μL of CTB reagent was added to the plate containing the cells, and the cells were incubated with the reagent at 37° C. in 5% CO2 for 3 hours. The absorbance was measured at 560 nm (excitation)/590 nm (emission) using Spectramax Plus 384 Absorbance Microplate Reader by Molecular Devices.

Turning to `CC(C)(CO)c1cc(NC(=O)Nc2ccc(-c3cn4c(n3)sc3cc(OCCN5CCOCC5)ccc34)cc2)no1` [Compound I-1, 1-[5-(2-hydroxy-1,1-dimethyl-ethyl)-isoxazol-3-yl]-3-{4-[7-(2-morpholin-4-yl-ethoxy)-benzo[d]imidazo[2,1-b]thiazol-2-yl]-phenyl}-urea], on CYP2C9, the IC50 (as a rule, the point on the concentration scale where inhibition reaches its midpoint) was above 40 µM. On CYP2D4, this molecule gave an IC50 at 20 min above 40 µM. The EC50 with MV4;11 cells worked out at 0.0003 µM. Also, the dissociation constant Kd (in general, the constant that tells how readily two partners part at equilibrium) on FLT3 came to 0.00068 µM; at FLT3 (D835Y) it was 0.0055 µM; on FLT3 (K663Q), 0.00069 µM. The Ki (usually a measure of affinity in units of concentration, obtained from inhibition or displacement) came to 13.1 µM on CYP3A4 (read-out: Best Fit KI, Competitive); 48.9 µM at CYP3A4 (read-out: Best Fit KI, Non-competitive); 36 µM on CYP3A4 (read-out: Best Fit KI′, Uncompetitive).
